Key:
Assay in all cases: Test E flooded paddy water application
Format in all cases: in vivo
[1] = test system: late watergrass (Echinochloa oryzicola); details: Flood, 21 days, scale 0 to 100 (0 no effect, 100 complete control); for Plant response rating, Watergrass, Late: 16 g ai/ha
Summary of the method: (§1)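 Response scored visually on a 0–100 scale (100 = complete control) at 21 days against untreated pots. Treatment was into paddy water 3 cm deep over silt loam, with plants at the 2.0–2.5-leaf stage, grown under 16-h light at 29.5/26.7 °C day/night.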

[2] = test system: ducksalad (Heteranthera limosa); details: Flood, 21 days, scale 0 to 100 (0 no effect, 100 complete control); for Plant response rating, Ducksalad: 16 g ai/ha
Summary of the method: as §1

[3] = test system: smallflower umbrella sedge (Cyperus difformis); details: Flood, 21 days, scale 0 to 100 (0 no effect, 100 complete control); for Plant response rating, Sedge, Umbrella: 16 g ai/ha
Summary of the method: as §1

[4] = test system: rice flatsedge (Cyperus iria); details: Flood, 21 days, scale 0 to 100 (0 no effect, 100 complete control); for Plant response rating, Flatsedge, Rice: 16 g ai/ha
Summary of the method: as §1

[5] = test system: bearded (brdd.) sprangletop (Leptochloa fusca ssp. fascicularis); details: Flood, 21 days, scale 0 to 100 (0 no effect, 100 complete control); for Plant response rating, Sprangletop, Brdd.: 16 g ai/ha
Summary of the method: as §1

[6] = test system: junglerice (Echinochloa colona); details: Flood, 21 days, scale 0 to 100 (0 no effect, 100 complete control); for Plant response rating, Junglerice: 16 g ai/ha
Summary of the method: as §1

[7] = test system: transplanted rice seedlings (Oryza sativa cv. ‘Japonica-M202’); details: Flood, 21 days, scale 0 to 100 (0 no effect, 100 complete control); for Plant response rating, Rice, Transplanted: 16 g ai/ha
Summary of the method: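 Greenhouse pots of Tama silt loam with weeds and rice at 2.0–2.5-leaf stage, flooded to 3 cm; compounds applied directly into paddy water, depth maintained. Visual rating versus untreated controls after 21 days, 0 (no effect) to 100 (complete control); 29.5/26.7 °C, 16-h photoperiod.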

[8] = test system: purple redstem (Ammannia coccinea); details: Flood, 21 days, scale 0 to 100 (0 no effect, 100 complete control); for Plant response rating, Redstem: 16 g ai/ha
Summary of the method: as §1

[9] = test system: early watergrass (Echinochloa oryzoides); details: Flood, 21 days, scale 0 to 100 (0 no effect, 100 complete control)
Summary of the method: as §1

[10] = test system: water seeded rice seedlings (Oryza sativa cv. ‘Japonica-M202’); details: Flood, 21 days, scale 0 to 100 (0 no effect, 100 complete control); for Plant response rating, Rice, Water Seeded: 16 g ai/ha
Summary of the method: as §1

SMILES: Nc1nc(-c2ccc(Cl)cc2)nc(C(=O)O)c1Cl [Compound 65, 6-amino-5-chloro-2-(4-chlorophenyl)-4-pyrimidinecarboxylic acid]
- Watergrass, Late plant response rating ([1]; 32 g ai/ha): 0
- Watergrass, Late plant response rating ([1]; 64 g ai/ha): 0
- Watergrass, Late plant response rating ([1]; 125 g ai/ha): 0
- Watergrass, Late plant response rating ([1]; 250 g ai/ha): 25
- Plant response rating, Watergrass, Late [1]: 0
- Ducksalad plant response rating ([2]; 32 g ai/ha): 100
- Ducksalad plant response rating ([2]; 64 g ai/ha): 100
- Ducksalad plant response rating ([2]; 125 g ai/ha): 100
- Ducksalad plant response rating ([2]; 250 g ai/ha): 100
- Plant response rating, Ducksalad [2]: 100
- Sedge, Umbrella plant response rating ([3]; 32 g ai/ha): 80
- Sedge, Umbrella plant response rating ([3]; 64 g ai/ha): 85
- Sedge, Umbrella plant response rating ([3]; 125 g ai/ha): 100
- Sedge, Umbrella plant response rating ([3]; 250 g ai/ha): 100
- Plant response rating, Sedge, Umbrella [3]: 20
- Flatsedge, Rice plant response rating ([4]; 32 g ai/ha): 80
- Flatsedge, Rice plant response rating ([4]; 64 g ai/ha): 100
- Flatsedge, Rice plant response rating ([4]; 125 g ai/ha): 100
- Flatsedge, Rice plant response rating ([4]; 250 g ai/ha): 100
- Plant response rating, Flatsedge, Rice [4]: 0
- Sprangletop, Brdd. plant response rating ([5]; 32 g ai/ha): 0
- Sprangletop, Brdd. plant response rating ([5]; 64 g ai/ha): 0
- Sprangletop, Brdd. plant response rating ([5]; 125 g ai/ha): 40
- Sprangletop, Brdd. plant response rating ([5]; 250 g ai/ha): 40
- Plant response rating, Sprangletop, Brdd. [5]: 0
- Junglerice plant response rating ([6]; 32 g ai/ha): 0
- Junglerice plant response rating ([6]; 64 g ai/ha): 0
- Junglerice plant response rating ([6]; 125 g ai/ha): 40
- Junglerice plant response rating ([6]; 250 g ai/ha): 40
- Plant response rating, Junglerice [6]: 0
- Rice, Transplanted plant response rating ([7]; 32 g ai/ha): 0
- Rice, Transplanted plant response rating ([7]; 64 g ai/ha): 0
- Rice, Transplanted plant response rating ([7]; 125 g ai/ha): 0
- Rice, Transplanted plant response rating ([7]; 250 g ai/ha): 0
- Plant response rating, Rice, Transplanted [7]: 0
- Redstem plant response rating ([8]; 32 g ai/ha): 30
- Redstem plant response rating ([8]; 64 g ai/ha): 30
- Redstem plant response rating ([8]; 125 g ai/ha): 50
- Redstem plant response rating ([8]; 250 g ai/ha): 60
- Plant response rating, Redstem [8]: 0
- Watergrass, Early plant response rating ([9]; 32 g ai/ha): 0
- Watergrass, Early plant response rating ([9]; 64 g ai/ha): 0
- Watergrass, Early plant response rating ([9]; 125 g ai/ha): 0
- Watergrass, Early plant response rating ([9]; 250 g ai/ha): 10
- Plant response rating, Watergrass, Early ([9]; 16 g ai/ha): 0
- Rice, Water Seeded plant response rating ([10]; 32 g ai/ha): 0
- Rice, Water Seeded plant response rating ([10]; 64 g ai/ha): 0
- Rice, Water Seeded plant response rating ([10]; 125 g ai/ha): 0
- Rice, Water Seeded plant response rating ([10]; 250 g ai/ha): 10
- Plant response rating, Rice, Water Seeded [10]: 0

SMILES: COC(=O)c1nc(-c2ccc(Cl)cc2)nc(N)c1Cl [Compound 58, methyl 6-amino-5-chloro-2-(4-chlorophenyl)-4-pyrimidinecarboxylate]
- Watergrass, Late plant response rating ([1]; 32 g ai/ha): 0
- Watergrass, Late plant response rating ([1]; 64 g ai/ha): 0
- Watergrass, Late plant response rating ([1]; 125 g ai/ha): 0
- Watergrass, Late plant response rating ([1]; 250 g ai/ha): 0
- Plant response rating, Watergrass, Late [1]: 0
- Ducksalad plant response rating ([2]; 32 g ai/ha): 100
- Ducksalad plant response rating ([2]; 64 g ai/ha): 100
- Ducksalad plant response rating ([2]; 125 g ai/ha): 100
- Ducksalad plant response rating ([2]; 250 g ai/ha): 100
- Plant response rating, Ducksalad [2]: 100
- Sedge, Umbrella plant response rating ([3]; 32 g ai/ha): 95
- Sedge, Umbrella plant response rating ([3]; 64 g ai/ha): 95
- Sedge, Umbrella plant response rating ([3]; 125 g ai/ha): 95
- Sedge, Umbrella plant response rating ([3]; 250 g ai/ha): 100
- Plant response rating, Sedge, Umbrella [3]: 65
- Flatsedge, Rice plant response rating ([4]; 32 g ai/ha): 100
- Flatsedge, Rice plant response rating ([4]; 64 g ai/ha): 100
- Flatsedge, Rice plant response rating ([4]; 125 g ai/ha): 100
- Flatsedge, Rice plant response rating ([4]; 250 g ai/ha): 100
- Plant response rating, Flatsedge, Rice [4]: 40
- Sprangletop, Brdd. plant response rating ([5]; 32 g ai/ha): 40
- Sprangletop, Brdd. plant response rating ([5]; 64 g ai/ha): 60
- Sprangletop, Brdd. plant response rating ([5]; 125 g ai/ha): 60
- Sprangletop, Brdd. plant response rating ([5]; 250 g ai/ha): 60
- Plant response rating, Sprangletop, Brdd. [5]: 20
- Junglerice plant response rating ([6]; 32 g ai/ha): 0
- Junglerice plant response rating ([6]; 64 g ai/ha): 0
- Junglerice plant response rating ([6]; 125 g ai/ha): 0
- Junglerice plant response rating ([6]; 250 g ai/ha): 0
- Plant response rating, Junglerice [6]: 0
- Rice, Transplanted plant response rating ([7]; 32 g ai/ha): 0
- Rice, Transplanted plant response rating ([7]; 64 g ai/ha): 0
- Rice, Transplanted plant response rating ([7]; 125 g ai/ha): 0
- Rice, Transplanted plant response rating ([7]; 250 g ai/ha): 0
- Plant response rating, Rice, Transplanted [7]: 0
- Redstem plant response rating ([8]; 32 g ai/ha): 80
- Redstem plant response rating ([8]; 64 g ai/ha): 85
- Redstem plant response rating ([8]; 125 g ai/ha): 95
- Redstem plant response rating ([8]; 250 g ai/ha): 95
- Plant response rating, Redstem [8]: 60
- Rice, Water Seeded plant response rating ([10]; 32 g ai/ha): 0
- Rice, Water Seeded plant response rating ([10]; 64 g ai/ha): 0
- Rice, Water Seeded plant response rating ([10]; 125 g ai/ha): 0
- Rice, Water Seeded plant response rating ([10]; 250 g ai/ha): 20
- Plant response rating, Rice, Water Seeded [10]: 0
